According to PubChem BioAssay AID248 (DTP/NCI, 2004):
Values joined by “and” are separate entries in the source; they are usually repeats but may differ in a detail not shown here. Equal values may be shown once. Inconclusive results and toxic doses are left out.

System: L1210 leukemia ip in BDF1 mice, survival T/C
Assay: NCI In Vivo Anticancer Drug Screen. Data for tumor model L1210 Leukemia (intraperitoneal) in B6D2F1 (BDF1) mice
Settings: endpoint: mean survival time, higher = longer survival
Procedure, shortened: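 Transplantable tumor model; survival measured in treated vs vehicle control mice. Value = treated/control.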

[1] = dose: 100.0 mg/kg/injection, schedule: Q04DX002 (ip), vehicle: Klucel (hydroxypropylcellulose) (HPC)
[2] = dose: 200.0 mg/kg/injection, schedule: Q04DX002 (ip), vehicle: Klucel (hydroxypropylcellulose) (HPC)
[3] = dose: 400.0 mg/kg/injection, schedule: Q04DX002 (ip), vehicle: Klucel (hydroxypropylcellulose) (HPC)
[4] = dose: 50.0 mg/kg/injection, schedule: Q01DX009 (ip), vehicle: Klucel (hydroxypropylcellulose) (HPC)
[5] = dose: 100.0 mg/kg/injection, schedule: Q01DX009 (ip), vehicle: Klucel (hydroxypropylcellulose) (HPC)
[6] = dose: 200.0 mg/kg/injection, schedule: Q01DX009 (ip), vehicle: Klucel (hydroxypropylcellulose) (HPC)
[7] = dose: 100.0 mg/kg/injection, schedule: Q04DX003 (ip), vehicle: Klucel (hydroxypropylcellulose) (HPC)
[8] = dose: 200.0 mg/kg/injection, schedule: Q04DX003 (ip), vehicle: Klucel (hydroxypropylcellulose) (HPC)
[9] = dose: 400.0 mg/kg/injection, schedule: Q04DX003 (ip), vehicle: Klucel (hydroxypropylcellulose) (HPC)
[10] = dose: 100.0 mg/kg/injection, schedule: Q01DX001 (ip), vehicle: carboxymethylcellulose (CMC)
[11] = dose: 200.0 mg/kg/injection, schedule: Q01DX001 (ip), vehicle: carboxymethylcellulose (CMC)
[12] = dose: 400.0 mg/kg/injection, schedule: Q01DX001 (ip), vehicle: carboxymethylcellulose (CMC)
[13] = dose: 100.0 mg/kg/injection, schedule: Q01DX001 (ip), vehicle: saline
[14] = dose: 200.0 mg/kg/injection, schedule: Q01DX001 (ip), vehicle: saline
[15] = dose: 400.0 mg/kg/injection, schedule: Q01DX001 (ip), vehicle: saline

## CC(=O)c1ccc2oc3ccccc3c2c1
[1]
  T/C: 97 % of control
[2]
  T/C: 100 % of control
[3]
  T/C: 93 % of control

## COc1cccc2c1C(=O)c1c(O)c3c(c(O)c1C2=O)C[C@@](O)(/C(C)=N/N1CCCCC1)C[C@@H]3OC1CC(N)C(O)C(C)O1 (some centres undefined)
dose: 0.12 mg/kg/injection, schedule: Q01DX009 (ip), vehicle: water
  T/C: 114 % of control
dose: 0.25 mg/kg/injection, schedule: Q01DX009 (ip), vehicle: water
  T/C: 113 % of control
dose: 0.25 mg/kg/injection, schedule: Q04DX003 (ip), vehicle: water
  T/C: 110 % of control
dose: 0.5 mg/kg/injection, schedule: Q01DX009 (ip), vehicle: water
  T/C: 117 % of control
dose: 0.5 mg/kg/injection, schedule: Q04DX003 (ip), vehicle: water
  T/C: 118 % of control
dose: 1.0 mg/kg/injection, schedule: Q04DX003 (ip), vehicle: water
  T/C: 116 % of control
dose: 2.0 mg/kg/injection, schedule: Q01DX009 (ip), vehicle: water
  T/C: 119 % of control
dose: 3.12 mg/kg/injection, schedule: Q01DX009 (ip), vehicle: saline with Tween-80
  T/C: 150 % of control
dose: 4.0 mg/kg/injection, schedule: Q01DX009 (ip), vehicle: water
  T/C: 114 % of control and 88 % of control
dose: 6.25 mg/kg/injection, schedule: Q01DX009 (ip), vehicle: saline with Tween-80
  T/C: 123 % of control
dose: 16.0 mg/kg/injection, schedule: Q04DX003 (ip), vehicle: water
  T/C: 86 % of control

## CC1(C)CCC(=O)C=C1c1c[nH]c2ccccc12
dose: 100.0 mg/kg/injection, schedule: Q01DX001 (ip), vehicle: other
  T/C: 88 % of control
dose: 200.0 mg/kg/injection, schedule: Q01DX001 (ip), vehicle: other
  T/C: 88 % of control
dose: 400.0 mg/kg/injection, schedule: Q01DX001 (ip), vehicle: other
  T/C: 97 % of control

## Cc1cc(C)c2c(SC(C)C)nc(N)nc2n1
dose: 100.0 mg/kg/injection, schedule: Q01DX Z (ip), vehicle: methylcellulose (MC)
  T/C: 95 % of control
dose: 200.0 mg/kg/injection, schedule: Q01DX Z (ip), vehicle: methylcellulose (MC)
  T/C: 97 % of control

## C(C#Cc1ccccc1)#Cc1ccccc1
dose: 100.0 mg/kg/injection, schedule: Q04DX003 (ip), vehicle: saline
  T/C: 94 % of control
dose: 200.0 mg/kg/injection, schedule: Q04DX003 (ip), vehicle: saline
  T/C: 100 % of control
dose: 400.0 mg/kg/injection, schedule: Q04DX003 (ip), vehicle: saline
  T/C: 97 % of control

## C#CCN(C)C(=O)Nc1ccccc1
dose: 100.0 mg/kg/injection, schedule: Q04DX002 (ip), vehicle: saline with Tween-80
  T/C: 91 % of control
dose: 200.0 mg/kg/injection, schedule: Q04DX002 (ip), vehicle: saline with Tween-80
  T/C: 91 % of control
dose: 400.0 mg/kg/injection, schedule: Q04DX002 (ip), vehicle: saline with Tween-80
  T/C: 113 % of control

## COc1ccc(-n2c(O)c(N=Nc3ccc(Cl)cc3)c(=O)n(-c3ccccc3)c2=S)cc1
dose: 37.5 mg/kg/injection, schedule: Q01DX001 (ip), vehicle: Klucel (hydroxypropylcellulose) (HPC)
  T/C: 89 % of control
dose: 75.0 mg/kg/injection, schedule: Q01DX001 (ip), vehicle: Klucel (hydroxypropylcellulose) (HPC)
  T/C: 94 % of control
dose: 150.0 mg/kg/injection, schedule: Q01DX001 (ip), vehicle: Klucel (hydroxypropylcellulose) (HPC)
  T/C: 92 % of control

## NP(=O)(CCl)NC12CC3CC(CC(C3)C1)C2 (centres undefined)
[4]
  T/C: 86 % of control
[5]
  T/C: 95 % of control
[6]
  T/C: 93 % of control

## O=C1OCCN1S(=O)(=O)c1ccc(Cl)cc1
[7]
  T/C: 104 % of control
[8]
  T/C: 95 % of control
[9]
  T/C: 96 % of control

## CCOc1ccccc1/C=N/NC(=O)C(O)(c1ccccc1)c1ccccc1
[10]
  T/C: 101 % of control
[11]
  T/C: 101 % of control
[12]
  T/C: 97 % of control

## Nc1cc(S(=O)(=O)O)cc2ccccc12
[13]
  T/C: 92 % of control
[14]
  T/C: 92 % of control
[15]
  T/C: 87 % of control

## NC(=O)NOC(=O)c1ccccc1
dose: 50.0 mg/kg/injection, schedule: Q01DX Z (ip), vehicle: other
  T/C: 103 % of control
dose: 100.0 mg/kg/injection, schedule: Q01DX Z (ip), vehicle: other
  T/C: 103 % of control
dose: 450.0 mg/kg/injection, schedule: Q01DX Z (ip), vehicle: other
  T/C: 111 % of control
dose: 600.0 mg/kg/injection, schedule: Q01DX Z (ip), vehicle: other
  T/C: 112 % of control

## O=c1[nH]c(CCCc2ccccc2)c(Br)c(=O)[nH]1
[1]
  T/C: 100 % of control
[2]
  T/C: 100 % of control
[3]
  T/C: 92 % of control

## O=C(O)C1C(C(=O)O)C(c2ccccc2)C1c1ccccc1 (centres undefined)
dose: 50.0 mg/kg/injection, schedule: Q01DX001 (ip), vehicle: carboxymethylcellulose (CMC)
  T/C: 90 % of control
[10]
  T/C: 97 % of control
[11]
  T/C: 103 % of control
[12]
  T/C: 90 % of control

## CCOC=Nc1c(N)ncnc1Cl
dose: 125.0 mg/kg/injection, schedule: Q01DX Z (ip), vehicle: other
  T/C: 93 % of control
dose: 250.0 mg/kg/injection, schedule: Q01DX Z (ip), vehicle: other
  T/C: 93 % of control
dose: 500.0 mg/kg/injection, schedule: Q01DX Z (ip), vehicle: other
  T/C: 103 % of control

## CCC(CO)Nc1nc2cc(Cl)ccc2c2ccc(Cl)cc12 (centres undefined)
[7]
  T/C: 102 % of control
[8]
  T/C: 100 % of control
[9]
  T/C: 103 % of control

## [N-]=[N+]=C1C(c2ccccc2)=NC(c2nccc3ccccc23)=C1[N+](=O)[O-]
dose: 5.0 mg/kg/injection, schedule: Q01DX001 (ip), vehicle: saline
  T/C: 113 % of control
dose: 10.0 mg/kg/injection, schedule: Q01DX001 (ip), vehicle: saline
  T/C: 102 % of control
dose: 20.0 mg/kg/injection, schedule: Q01DX001 (ip), vehicle: saline
  T/C: 110 % of control

## Fc1cc(F)c(F)c(Oc2c(F)c(F)c(F)c(F)c2F)c1F
[7]
  T/C: 100 % of control
[8]
  T/C: 95 % of control
[9]
  T/C: 93 % of control

## CC12CC(C3(O)C(=O)Nc4ccccc43)C(=O)CC1CCC1C2CCC2(C)C(OC(=O)c3ccccc3)CCC12 (centres undefined)
[4]
  T/C: 93 % of control
[5]
  T/C: 101 % of control
[6]
  T/C: 101 % of control

## COc1cc(CC(=O)O)c([N+](=O)[O-])cc1OC
[10]
  T/C: 97 % of control
[5]
  T/C: 114 % of control
[11]
  T/C: 110 % of control
[6]
  T/C: 103 % of control
[12]
  T/C: 110 % of control
dose: 400.0 mg/kg/injection, schedule: Q01DX009 (ip), vehicle: Klucel (hydroxypropylcellulose) (HPC)
  T/C: 101 % of control

## OC1(c2ccc(Cl)cc2)CCN(C2CC2c2ccccc2)CC1 (centres undefined)
dose: 100.0 mg/kg/injection, schedule: Q01DX001 (ip), vehicle: Klucel (hydroxypropylcellulose) (HPC)
  T/C: 98 % of control
dose: 200.0 mg/kg/injection, schedule: Q01DX001 (ip), vehicle: Klucel (hydroxypropylcellulose) (HPC)
  T/C: 97 % of control
dose: 400.0 mg/kg/injection, schedule: Q01DX001 (ip), vehicle: Klucel (hydroxypropylcellulose) (HPC)
  T/C: 98 % of control

## C(=N/N=C(/C(=N/N=C/c1ccccc1)c1ccccc1)c1ccccc1)\c1ccccc1
[13]
  T/C: 94 % of control
[14]
  T/C: 95 % of control
[15]
  T/C: 97 % of control

## ClC(Cl)(Cl)c1nccnc1Br
dose: 12.5 mg/kg/injection, schedule: Q01DX009 (ip), vehicle: Klucel (hydroxypropylcellulose) (HPC)
  T/C: 111 % of control
dose: 25.0 mg/kg/injection, schedule: Q01DX009 (ip), vehicle: Klucel (hydroxypropylcellulose) (HPC)
  T/C: 94 % of control
[4]
  T/C: 94 % of control and 104 % of control

## Cc1ccc(S(=O)(=O)Nc2ccccc2N=Cc2ccc(N(CCCl)CCCl)cc2C)cc1
[10]
  T/C: 101 % of control
[11]
  T/C: 103 % of control
[12]
  T/C: 86 % of control

## COC(OC)c1nc(SC)[nH]c(=O)c1C[N+](C)(C)C
dose: 100.0 mg/kg/injection, schedule: Q01DX009 (ip), vehicle: saline with Tween-80
  T/C: 102 % of control
dose: 100.0 mg/kg/injection, schedule: Q04DX003 (ip), vehicle: saline with Tween-80
  T/C: 96 % of control
dose: 200.0 mg/kg/injection, schedule: Q01DX009 (ip), vehicle: saline with Tween-80
  T/C: 92 % of control
dose: 200.0 mg/kg/injection, schedule: Q04DX003 (ip), vehicle: saline with Tween-80
  T/C: 94 % of control
dose: 400.0 mg/kg/injection, schedule: Q04DX003 (ip), vehicle: saline with Tween-80
  T/C: 91 % of control
